Source: US20260242438A1 (INSTITUTE OF MATERIA MEDICA, CHINESE ACADEMY OF MEDICAL …, priority 2022, published 2026)
*1 amine or outer side, *2 acyl side, *3 side chain or, on linkers, in order; H or OH if unused. Where a SMILES comes first, the peptide text is derived from it. Bridges are numbered along the chain shown (N, C = ends). The star is where a group is joined. pNA = O=[N+]([O-])c1ccc(N*)cc1; Suc = O=C(CCC(=O)[*:2])[*:1]

Assays:
chymotrypsin [1] = biological target: T1, chymotrypsin (Bos taurus, UniProt P00766); assay: Determination of the Michaelis constant Km of chymotrypsin hydrolyzing AAPFpNA; type: biochemical; details: R^2=0.9988, pH 7.8, 37° C.
Protocol: (1) Added a total 198 μL of reaction buffer (20 mM CaCl2, 50 mM Tris-HCl (pH 7.8)) into the 96 well plate, followed by preheating at 37° C. for 15 min. Then added 2 μL of different concentrations of substrates (p-Nitroanilide, pNA, 0.5% in DMSO), and mixed by centrifugation at 500 rpm for 1 min. Finally, the plate was incubated at 37° C. for 20 min, and the absorbance value at 405 nm was measured. In the 200 μL of reaction system, the final concentrations of pNA were 0, 0.025, 0.05, 0.075, 0.1, 0.125, 0.15, 0.25, and 0.3 mM, respectively. Make three repetitions for each concentration and plot the OD 405 nm value with pNA concentration to obtain the standard curve. (2) Added a total 190 μL of reaction buffer (20 mM CaCl2, 50 mM Tris-HCl (pH 7.8)) and 8 μL of 0.75 μM chymotrypsin into the 96 well plate, followed by preheating at 37° C. for 5 min. Then added 2 μL of different concentrations of substrates (AAPFpNA, dissolved in DMSO), and mixed by centrifugation at 500 rpm for 1 min. Finally, the plate was incubated at 37° C. for 20 min, and the absorbance value at 405 nm was measured. In the 200 μL of reaction system, the final concentrations of AAPFpNA were 0, 0.125, 0.25, 0.285, 0.33, 0.4, and 0.5 mM, respectively. […]
Using a certain concentration of chymotrypsin to catalyze different concentrations of AAPFpNA to produce pNA, and the absorbance value of OD 405 nm was measured.

chymotrypsin [2] = biological target: T1, chymotrypsin; assay: Determination of enzyme inhibitory activity against chymotrypsin (substrate AAPFpNA, OD 405 nm); type: biochemical; details: for IC50: chymotrypsin 30 nM, AAPFpNA 0.5 mM, pH 7.8, 37° C.; for remaining activity at 0.001 µM: peptide 0.001 μM; for remaining activity at 0.1 µM: peptide 0.1 μM; for remaining activity at 0.5 µM: peptide 0.5 μM; for remaining activity at 1 µM: peptide 1 μM; for remaining activity at 10 µM: peptide 10 μM; for remaining activity at 100 µM: peptide 100 μM; for remaining activity at 0.01 µM: peptide 0.01 μM; for remaining activity at 0.2 µM: peptide 0.2 μM
Protocol: The substrates N-succinyl-Ala-Ala-Pro-Phe-p-nitroaniline (AAPFpNA) is used in competitive binding reaction to determine the inhibitory activities against α -chymotrypsin. Experiments for a-chymotrypsin was measured in 20 mM CaCl2, 50 mM Tris-HCl buffer (pH 7.8). The concentration of the peptide was measured using optical density (OD) at 280 nm. The Michaelis constant (Km) of the enzyme hydrolysis substrate is calculated from the initial rate of substrate hydrolysis at 405 nm. The absorbance value of the substrate was measured at 405 nm after complete hydrolysis. All data were processed using nonlinear regression.
(1) Added a total 190 μL of reaction buffer (20 mM CaCl2, 50 mM Tris-HCl (pH 7.8)), different concentrations of anti-chymorypsin peptides (CHs) into the pre-cold 96 well plate, followed by preheating at 37° C. for 5 min and centrifugated at 500 rpm for 1 min and allowed to stand for 4 minutes. Then added 8 μL of 750 nM chymotrypsin and incubated at 37° C. for 10 min, and centrifugated at 500 rpm for 1 min and allowed to stand for 9 minutes. Finally, added 2 μL of 50 mM AAPFpNA, and mixed by centrifugation at 500 rpm for 1 min. The plate was incubated at 37° C. for 90 min, and the absorbance value at 405 nm was measured. Three repetitions were made, and only reaction buffer and substrate were added in the blank control as the minimum absorption value (Min OD 405 nm); Only reaction buffer, enzyme and substrate were added in the negative control as the maximum absorption value (Max OD 405 nm).
(2) In the 200 μL of reaction system, the final concentrations of chymotrypsin and AAPFpNA were 30 nM and 0.5 mM, respectively.
Plotted the residual activity of enzyme with […] to obtain the half inhibitory concentration (IC50) of anti-chymorypsin peptides (CHs). Then, substituted it into the formula […]/(1+S/Km) (S, IC50, and Km were substrate concentration, half inhibitory concentration, and Michaelis constant, respectively) to obtain the inhibition constant Ki of anti-chymorypsin peptides (CHs).

Normal ICR mice = assay: In vivo hypoglycemic activity, subcutaneous administration; details: for Glucose (mean ± sd): subcutaneous, 0.9 mg/kg
Protocol: Tail tip blood samples were collected at 40 min and 90 min after administration, and blood glucose levels were measured using glucose oxidase method to calculate blood glucose values at each blood sampling time point.

[3] = read-out: Residual activity of chymotrypsin

Row | Ki (chymotrypsin [2]) [µM] | IC50 (chymotrypsin [2]) [µM] | remaining activity at 0.001 µM (chymotrypsin [2]; [3]) [%] | remaining activity at 0.1 µM (chymotrypsin [2]; [3]) [%] | remaining activity at 0.5 µM (chymotrypsin [2]; [3]) [%] | remaining activity at 1 µM (chymotrypsin [2]; [3]) [%] | remaining activity at 10 µM (chymotrypsin [2]; [3]) [%] | remaining activity at 100 µM (chymotrypsin [2]; [3]) [%] | remaining activity at 0.01 µM (chymotrypsin [2]; [3]) [%] | remaining activity at 0.2 µM (chymotrypsin [2]; [3]) [%] | Compound | further results
1 | – | – | – | – | – | – | – | – | – | – | C[C@H](NC(=O)CCC(=O)O)C(=O)N[C@@H](C)C(=O)N1CCC[C@H]1C(=O)N[C@@H](Cc1ccccc1)C(=O)Nc1ccc([N+](=O)[O-])cc1 [AAPFpNA, N-succinyl-Ala-Ala-Pro-Phe-p-nitroaniline] (Suc-AAPF-pNA) | Km (chymotrypsin [1]): 380 µM
2 | 0.21 | 0.48 | 99.8 ± 2 | 97.8 ± 4.4 | 48.2 ± 3.6 | 8.9 ± 1.4 | 4.1 ± 2.3 | 0.1 ± 0.1 | – | – | CC[C@H](C)[C@@H]1NC(=O)[C@@H]2CCCN2C(=O)[C@@H]2CCCN2C(=O)[C@H]([C@@H](C)CC)NC(=O)[C@H](CO)NC(=O)[C@H](Cc2ccc(O)cc2)NC(=O)[C@H]([C@@H](C)O)NC(=O)[C@H](C)NC(=O)[C@H](CCCNC(=N)N)NC(=O)CNC(=O)[C@@H](N)CSSC[C@@H](C(=O)N[C@@H](Cc2ccccc2)C(=O)N2CCC[C@H]2C(=O)N[C@@H](CC(=O)O)C(=O)O)NC1=O [CH65] (H-CGRATYSIPPICFPD-OH; disulfide 1-12; C-terminus assumed) | remaining activity at 0.25 µM (chymotrypsin [2]; peptide 0.25 μM, read-out: Residual activity of chymotrypsin): 89.5 ± 2.9%; remaining activity at 0.75 µM (chymotrypsin [2]; peptide 0.75 μM, read-out: Residual activity of chymotrypsin): 11.7 ± 1.4%; remaining activity at 1000 µM (chymotrypsin [2]; peptide 1000 μM, read-out: Residual activity of chymotrypsin): 0.2%
3 | 0.28 | 0.65 | – | – | – | – | – | – | – | – | CC[C@H](C)[C@@H]1NC(=O)[C@@H]2CCCN2C(=O)[C@@H]2CCCN2C(=O)[C@H]([C@@H](C)CC)NC(=O)[C@H](CO)NC(=O)[C@H](Cc2ccc(O)cc2)NC(=O)[C@H]([C@@H](C)O)NC(=O)[C@H](C)NC(=O)[C@H](CCCNC(=N)N)NC(=O)CNC(=O)[C@@H](N)CSSC[C@@H](C(=O)N[C@@H](Cc2ccccc2)C(=O)N2CCC[C@H]2C(=O)O)NC1=O [CH66] (H-CGRATYSIPPICFP-OH; disulfide 1-12; C-terminus assumed) | –
4 | 0.86 | 2 | – | – | – | – | – | – | – | – | CC[C@H](C)[C@@H]1NC(=O)[C@@H]2CCCN2C(=O)[C@@H]2CCCN2C(=O)[C@H]([C@@H](C)CC)NC(=O)[C@H](CO)NC(=O)[C@H](Cc2ccc(O)cc2)NC(=O)[C@H]([C@@H](C)O)NC(=O)[C@H](C)NC(=O)[C@H](CCCNC(=N)N)NC(=O)CNC(=O)[C@@H](N)CSSC[C@@H](C(=O)N[C@@H](Cc2ccccc2)C(=O)O)NC1=O [CH67] (H-CGRATYSIPPICF-OH; disulfide 1-12; C-terminus assumed) | –
5 | 0.13 | 0.3 | 101.7 ± 0.3 | 100 ± 2.5 | 20.1 ± 6.1 | 12.1 ± 1.1 | 1.3 ± 0.6 | 0 | 101 ± 0.2 | 78 ± 4 | CC[C@H](C)[C@@H]1NC(=O)[C@@H]2CCCN2C(=O)[C@@H]2CCCN2C(=O)[C@H]([C@@H](C)CC)NC(=O)[C@H](CO)NC(=O)[C@H](Cc2ccc(O)cc2)NC(=O)[C@H]([C@@H](C)O)NC(=O)[C@H](C)NC(=O)[C@H](CCCNC(=N)N)NC(=O)[C@H](CCCCN)NC(=O)[C@@H](N)CSSC[C@@H](C(=O)N[C@@H](Cc2ccccc2)C(=O)O)NC1=O [CH69] (H-CKRATYSIPPICF-OH; disulfide 1-12; C-terminus assumed) | remaining activity at 0.3 µM (chymotrypsin [2]; peptide 0.3 μM, read-out: Residual activity of chymotrypsin): 51.5 ± 5.8%
6 | 0.11 | 0.25 | 100 ± 7.6 | 105.8 ± 0.9 | 26 ± 2.5 | 7.7 ± 0.2 | 0.7 ± 0.3 | -0.1 ± 0.1 | 106 ± 1.8 | 55 ± 7.2 | CC[C@H](C)[C@@H]1NC(=O)[C@@H]2CCCN2C(=O)[C@@H]2CCCN2C(=O)[C@H]([C@@H](C)CC)NC(=O)[C@H](CO)NC(=O)[C@H](Cc2ccc(O)cc2)NC(=O)[C@H]([C@@H](C)O)NC(=O)[C@H](C)NC(=O)[C@H](CCCNC(=N)N)NC(=O)[C@H](CCC(=O)O)NC(=O)[C@@H](N)CSSC[C@@H](C(=O)N[C@@H](Cc2ccccc2)C(=O)O)NC1=O [CH70] (H-CERATYSIPPICF-OH; disulfide 1-12; C-terminus assumed) | remaining activity at 0.15 µM (chymotrypsin [2]; peptide 0.15 μM, read-out: Residual activity of chymotrypsin): 96.5 ± 8.5%
7 | 0.18 | 0.41 | 101.4 ± 0.6 | 100.3 ± 0.5 | – | 20.7 ± 1.3 | 0.8 ± 0.2 | 0.1 ± 0.1 | 100.6 ± 1 | 81.7 ± 3.3 | CC[C@H](C)[C@@H]1NC(=O)[C@@H]2CCCN2C(=O)[C@@H]2CCCN2C(=O)[C@H]([C@@H](C)CC)NC(=O)[C@H](CO)NC(=O)[C@H](Cc2ccccc2)NC(=O)[C@H]([C@@H](C)O)NC(=O)[C@H](C)NC(=O)[C@H](CCCNC(=N)N)NC(=O)CNC(=O)[C@@H](N)CSSC[C@@H](C(=O)N[C@@H](Cc2ccccc2)C(=O)O)NC1=O [CH71] (H-CGRATFSIPPICF-OH; disulfide 1-12; C-terminus assumed) | remaining activity at 0.4 µM (chymotrypsin [2]; peptide 0.4 μM, read-out: Residual activity of chymotrypsin): 49.9 ± 6.6%; remaining activity at 0.8 µM (chymotrypsin [2]; peptide 0.8 μM, read-out: Residual activity of chymotrypsin): 23.6 ± 1.5%
8 | – | – | – | – | – | – | – | – | – | – | lispro: insulin analogue lispro synthesized in the present invention | hypoglycemic activity (in words) (Normal ICR mice; subcutaneous administration, compared with a positive control): good hypoglycemic activity; Glucose (mean ± sd) (Normal ICR mice; 0 min): 96.7 ± 24.8 mg/dL; Glucose (mean ± sd) (Normal ICR mice; 40 min): 70.3 ± 6.2 mg/dL; Glucose (mean ± sd) (Normal ICR mice; 90 min): 72.9 ± 15.6 mg/dL
